Assay results from patent publication US11492327B2, “Aminooxylipids for the construction of self-assembling liposomal systems enabling their subsequent modification by biologically functional molecules” (VYSOKA SKOLA CHEMICKO-TECHNOLOGICKA V PRAZE, priority 2016, dated 2022).

Assays:
[1] = test system: H1299 cells of lung carcinoma cell line; assay: Cytotoxicity of liposomes: apoptotic cells detected with Annexin V by flow cytometry; format: cell-based; conditions: aminooxylipid incorporated into liposomal bilayer
Description: (§1) Methods: The cytotoxicity of liposomes prepared as described in Example 15 is determined by comparing the cytotoxicity of EPC liposomes and EPC liposomes with an incorporated aminooxylipid of general formula I (according to Example 12, 13 or 14) in in vitro experiments with T-lymphocytes and on H1299 cells of lung carcinoma cell line.
(§2) Measurements were performed on a flow cytometer Fortessa (Becton Dickinson). Apoptotic cells were detected and quantified using the fluorescent dye Annexin V (Invitrogen).
(§3) In all experiments, 500 μl media per well were used and lipid content was 100 μg per 1 ml of the medium. Unmodified liposomes and liposomes modified post-liposomally with hyaluronic acid were incubated. In Experiment 1, H1299 cells of lung carcinoma were incubated for 30 minutes at 4° C. In Experiment 2, T-lymphocytes were used and incubated at room temperature in a rotator. In Experiments 3 and 4, H1299 cells of lung carcinoma cell line were used and incubated for 2 hours in a CO2 incubator (37° C., 5% CO2). In Experiment 5, H1299 cells of lung carcinoma were used. These cells were incubated for 30 minutes at 4° C. in a refrigerator.

T-lymphocytes = assay: as above; format: cell-based; conditions: aminooxylipid incorporated into liposomal bilayer
Description: as §1, §2, §3

[2] = HA binding onto liposomes presenting the aminooxy group vs. the amino group (gel chromatography, fluorimetry); conditions: incubated in 10 mM citric acid; lipid incorporated in liposomes
Description: Methods: Liposomes presenting the aminooxy group were prepared by the procedure described in Example 15, containing 1% aminooxylipidid of general formula I (according to Example 14) at a starting concentration of 10 mg/ml PBS. The amino group-presenting liposomes were prepared by the same technique with the amino group-containing lipid DOPE. These liposomes at a starting concentration of 10 mg/ml PBS were mixed with fluorescently labelled HA (Sigma-Aldrich) at a concentration of 1 mg/ml PBS in a ratio of 1 mg total lipid to 0.1 mg HA. Incubation takes place for at least 30 minutes at room temperature (see Example 19). Both samples were incubated in 10 mM citric acid. Unbound HA was removed on a Superose 6 column (200 μl spraying buffer, flow rate of the first milliliter was 0.1 ml/min, then 0.3 ml/min, collection of 1 ml fractions). Fluorescence was measured using a Perkin Elmer fluorimeter at appropriate wavelengths (excitation for FITC-HA was 490 nm, emission 505 nm).

[3] = Size, PDI and zeta-potential of liposomes by DLS (Nanosizer ZS); format: physicochemical; conditions: for Effect of incorporation into liposomes on the final distribution of liposomes: 99% EPC, 1% aminooxylipid; for Zeta potential: liposomes containing 1% aminooxylipid in PBS solution with neutral pH
Description: Methods: Liposomes with incorporated aminooxylipids were prepared by phospholipid film hydration. All lipids were dissolved in chloroform at a concentration of 10 mg of lipid/1 ml chloroform at a molar ratio of 99% EPC to 1% aminooxylipids of general formula I (according to Examples 12, 13 and 14). The chloroform solution was evaporated in a globular flask on a rotary evaporator; pressure: 100 hPa, water bath temperature: 37° C., 90 revolutions/minute). The resulting lipid film was hydrated with PBS (pH 7.2, 0.14M NaCl, 20 mM Na-phosphate) to a final concentration of 10 mg/ml. The liposomes were then extruded through Nucleopore polycarbonate filters with 400 and 100 nm pore size. The size and zeta-potential were measured using a Nanosizer ZS (Malvern, UK) in a DTS cell, Attenuator value 4, 25° C. […] Example with a lipid of general formula I (according to Example 12): EPC liposomes: size 82 nm, PDI 0.11; EPC+ aminooxylipid 1%: size 81 nm, PDI 0.1.
DLS measurements were carried out under the same conditions as in Example 15.
Methods: The liposomes prepared as described in Example 15, containing 1% aminooxylipidid of general formula I (according to Example 14) at a starting concentration of 10 mg/ml PBS were mixed with a mannan solution in PBS in a ratio of 1 mg total lipid to 0.1 mg mannan. The reaction was carried out at room temperature. Low molecular weight components and unbound mannan were removed by gel chromatography on a Superose 6 column. The mannan binding onto the liposomal surface was confirmed by: a) scanning and transmission electron microscopy; b) the change in liposome size was determined by the DLS technique (Zetasizer ZS, Malvern UK). The polysaccharide mannan was isolated from the yeast Candida albicans. The size of the molecules of mannan and liposomes was measured by DLS. […] Dendritic cells were prepared by culture from peripheral blood of healthy donors. Their stimulating activity was compared with lipopolysaccharide activity (LPS, standard Salmonella minnesota).

CCCCCCCCCCCCCCC(CCCCCCCCCCCCCC)C(=O)NCOC(CCOCC)NC(=O)CON.O=C(O)C(F)(F)F (centres unmarked) [Example 14, N^1-(2-tetradecylhexadecanoyl)-N^3-amoniumoxyacetyl-1,3-diamino-2,6-dioxaoctane-trifluoracetate]
Cytotoxicity of EPC liposomes with incorporated aminooxylipid vs. EPC liposomes [1]: does not result in an increase in their cytotoxicity
Cytotoxicity of EPC liposomes with incorporated aminooxylipid vs. EPC liposomes (T-lymphocytes): does not result in an increase in their cytotoxicity
HA remaining bound after acidification, % of the original HA [2]: did not change due to acidification
Effect of incorporation into liposomes on the final distribution of liposomes ([3]; Example 15): no significant effect
size (size distribution, particle numbers) ([3]; Example 20, FIG. 3, liposomes with 1% aminooxylipid, alone or coupled with IgY): 107 nm
Zeta potential [3]: around 0 mV

CCCCCCCC/C=C\CCCCCCCC(=O)OC[C@H](COP(=O)(O)OCCN)OC(=O)CCCCCCC/C=C\CCCCCCCC [DOPE, 1,2-dioleoyl-sn-glycero-3-phosphoethanolamine, reference compound]
HA remaining bound after acidification, % of the original HA [2]: 20%

CCCCCCCCCCCCCCC(CCCCCCCCCCCCCC)C(=O)NCCNC(=O)CON.O=C(O)C(F)(F)F [Example 12, N^1-(2-tetradecylhexadecanoyl)-N^2-amoniumoxyacetyl-1,2-diaminoethane-trifluoroacetate]
Cytotoxicity of EPC liposomes with incorporated aminooxylipid vs. EPC liposomes [1]: does not result in an increase in their cytotoxicity
Cytotoxicity of EPC liposomes with incorporated aminooxylipid vs. EPC liposomes (T-lymphocytes): does not result in an increase in their cytotoxicity
Effect of incorporation into liposomes on the final distribution of liposomes ([3]; Example 15): no significant effect
PDI ([3]; Example 15, EPC liposomes without or with 1% aminooxylipid, PBS): 0.1
size ([3]; Example 15, EPC liposomes without or with 1% aminooxylipid, PBS, extruded 400 and 100 nm): 81 nm
Zeta potential [3]: around 0 mV

CCCCCCCCCCCCCCC(CCCCCCCCCCCCCC)C(=O)NCCCNC(=O)CON.O=C(O)C(F)(F)F [Example 13, N^1-(2-tetradecylhexadecanoyl)-N^3-amoniumoxyacetyl-1,3-diaminopropane-trifluoracetate]
Cytotoxicity of EPC liposomes with incorporated aminooxylipid vs. EPC liposomes [1]: does not result in an increase in their cytotoxicity
Cytotoxicity of EPC liposomes with incorporated aminooxylipid vs. EPC liposomes (T-lymphocytes): does not result in an increase in their cytotoxicity
Effect of incorporation into liposomes on the final distribution of liposomes ([3]; Example 15): no significant effect
Zeta potential [3]: around 0 mV
